Source: ChEMBL document CHEMBL3885881, “DrugMatrix”

Organism: Rattus norvegicus
Assay: DrugMatrix - Regimen: Daily Repeat
Type: toxicity, organism-based, Sprague-Dawley
Design: regimen Daily Repeat, gender Male, age 6-8 weeks
Details: in vivo, po, route oral GAVAGE, vehicle 100 % WATER; for ABSOLUTE BASOPHIL / ABSOLUTE EOSINOPHIL / ABSOLUTE LYMPHOCYTE / ABSOLUTE MONOCYTE / ABSOLUTE SEGMENTED NEUTROPHIL / BASOPHIL / EOSINOPHIL / ERYTHROCYTE COUNT / HEMATOCRIT / HEMOGLOBIN / LEUKOCYTE COUNT / LYMPHOCYTE / MEAN CORPUSCULAR HEMOGLOBIN / MEAN CORPUSCULAR HEMOGLOBIN CONCENTRATION / MEAN CORPUSCULAR VOLUME / MONOCYTE / NEUTROPHIL / NUCLEATED RED BLOOD CELLS / PLATELET COUNT: tissue Blood; for ALANINE AMINOTRANSFERASE / ALKALINE PHOSPHATASE / ASPARTATE AMINOTRANSFERASE / BLOOD UREA NITROGEN / CARBON DIOXIDE / CHLORIDE / CHOLESTEROL / CREATINE PHOSPHOKINASE / CREATININE / GLUCOSE / LACTATE DEHYDROGENASE / LIPASE / PHOSPHORUS / POTASSIUM / SODIUM / TOTAL BILIRUBIN / TOTAL PROTEIN / URIC ACID: tissue Plasma
[1] = 0 mg/kg, 72 h, dose level Control, time 3 day
[2] = 0 mg/kg, 120 h, dose level Control, time 5 day
[3] = 22 mg/kg, 72 h, dose level Low, time 3 day

COc1ccc(C(CN(C)C)C2(O)CCCCC2)cc1 (stereo unspecified) [VENLAFAXINE]
ABSOLUTE BASOPHIL [1]: 0 CELLS/uL
ABSOLUTE EOSINOPHIL [1]: 102 CELLS/uL
ABSOLUTE LYMPHOCYTE [1]: 12758 CELLS/uL
ABSOLUTE MONOCYTE [1]: 197.17 CELLS/uL
ABSOLUTE SEGMENTED NEUTROPHIL [1]: 1259.5 CELLS/uL
BASOPHIL [1]: 0%
EOSINOPHIL [1]: 0.83%
ERYTHROCYTE COUNT [1]: 5.3 x10E6/uL
HEMATOCRIT [1]: 33.47%
HEMOGLOBIN [1]: 13.12 G/DL
LEUKOCYTE COUNT [1]: 14.32 x10E3/uL
LYMPHOCYTE [1]: 89.33%
MEAN CORPUSCULAR HEMOGLOBIN [1]: 24.8 pg
MEAN CORPUSCULAR HEMOGLOBIN CONCENTRATION [1]: 39.18 G/DL
MEAN CORPUSCULAR VOLUME [1]: 63.25 fL
MONOCYTE [1]: 1.33%
NEUTROPHIL [1]: 8.5%
NUCLEATED RED BLOOD CELLS [1]: 0 /100WBC
PLATELET COUNT [1]: 1313.17 x10E3/uL
ALANINE AMINOTRANSFERASE [1]: 52.67 u/L
ALKALINE PHOSPHATASE [1]: 372 u/L
ASPARTATE AMINOTRANSFERASE [1]: 82.83 u/L
BLOOD UREA NITROGEN [1]: 15 mg/dL
CARBON DIOXIDE [1]: 25.67 mmol/L
CHLORIDE [1]: 102.17 MEQ/L
CHOLESTEROL [1]: 68.83 mg/dL
CREATINE PHOSPHOKINASE [1]: 285 u/L
CREATININE [1]: 0.18 mg/dL
GLUCOSE [1]: 149.17 mg/dL
LACTATE DEHYDROGENASE [1]: 263.83 u/L
LIPASE [1]: 10.17 u/L
PHOSPHORUS [1]: 12.58 mg/dL
POTASSIUM [1]: 6.58 MEQ/L
SODIUM [1]: 144.22 MEQ/L
TOTAL BILIRUBIN [1]: 0.22 mg/dL
TOTAL PROTEIN [1]: 5.83 G/DL
URIC ACID [1]: 1.58 mg/dL
ABSOLUTE BASOPHIL [2]: 0 CELLS/uL
ABSOLUTE EOSINOPHIL [2]: 24 CELLS/uL
ABSOLUTE LYMPHOCYTE [2]: 11134.17 CELLS/uL
ABSOLUTE MONOCYTE [2]: 56.33 CELLS/uL
ABSOLUTE SEGMENTED NEUTROPHIL [2]: 1235.5 CELLS/uL
BASOPHIL [2]: 0%
EOSINOPHIL [2]: 0.17%
ERYTHROCYTE COUNT [2]: 5.68 x10E6/uL
HEMATOCRIT [2]: 35.72%
HEMOGLOBIN [2]: 13.93 G/DL
LEUKOCYTE COUNT [2]: 12.45 x10E3/uL
LYMPHOCYTE [2]: 89.5%
MEAN CORPUSCULAR HEMOGLOBIN [2]: 24.63 pg
MEAN CORPUSCULAR HEMOGLOBIN CONCENTRATION [2]: 39.13 G/DL
MEAN CORPUSCULAR VOLUME [2]: 62.97 fL
MONOCYTE [2]: 0.5%
NEUTROPHIL [2]: 9.83%
NUCLEATED RED BLOOD CELLS [2]: 0 /100WBC
PLATELET COUNT [2]: 1204 x10E3/uL
ALANINE AMINOTRANSFERASE [2]: 59.5 u/L
ALKALINE PHOSPHATASE [2]: 415.67 u/L
ASPARTATE AMINOTRANSFERASE [2]: 91.33 u/L
BLOOD UREA NITROGEN [2]: 17 mg/dL
CARBON DIOXIDE [2]: 26.33 mmol/L
CHLORIDE [2]: 104.17 MEQ/L
CHOLESTEROL [2]: 77 mg/dL
CREATINE PHOSPHOKINASE [2]: 249.67 u/L
CREATININE [2]: 0.21 mg/dL
GLUCOSE [2]: 148.33 mg/dL
LACTATE DEHYDROGENASE [2]: 168.5 u/L
LIPASE [2]: 10.17 u/L
PHOSPHORUS [2]: 12.92 mg/dL
POTASSIUM [2]: 7.09 MEQ/L
SODIUM [2]: 148.37 MEQ/L
TOTAL BILIRUBIN [2]: 0.23 mg/dL
TOTAL PROTEIN [2]: 6.3 G/DL
URIC ACID [2]: 1.77 mg/dL
ABSOLUTE BASOPHIL [3]: 0 CELLS/uL
ABSOLUTE EOSINOPHIL [3]: 59.67 CELLS/uL
ABSOLUTE LYMPHOCYTE [3]: 13145.33 CELLS/uL
ABSOLUTE MONOCYTE [3]: 145.33 CELLS/uL
ABSOLUTE SEGMENTED NEUTROPHIL [3]: 1183 CELLS/uL
BASOPHIL [3]: 0%
EOSINOPHIL [3]: 0.33%
ERYTHROCYTE COUNT [3]: 5.58 x10E6/uL
HEMATOCRIT [3]: 35.93%
HEMOGLOBIN [3]: 14.03 G/DL
LEUKOCYTE COUNT [3]: 14.53 x10E3/uL
LYMPHOCYTE [3]: 90.67%
MEAN CORPUSCULAR HEMOGLOBIN [3]: 25.13 pg
MEAN CORPUSCULAR HEMOGLOBIN CONCENTRATION [3]: 39.1 G/DL
MEAN CORPUSCULAR VOLUME [3]: 64.33 fL
MONOCYTE [3]: 1%
NEUTROPHIL [3]: 8%
NUCLEATED RED BLOOD CELLS [3]: 0 /100WBC
PLATELET COUNT [3]: 1219 x10E3/uL
ALANINE AMINOTRANSFERASE [3]: 59.67 u/L
ALKALINE PHOSPHATASE [3]: 338 u/L
ASPARTATE AMINOTRANSFERASE [3]: 94.33 u/L
BLOOD UREA NITROGEN [3]: 15.67 mg/dL
CARBON DIOXIDE [3]: 24.33 mmol/L
CHLORIDE [3]: 103.67 MEQ/L
CHOLESTEROL [3]: 73.67 mg/dL
CREATINE PHOSPHOKINASE [3]: 320.67 u/L
CREATININE [3]: 0.17 mg/dL
GLUCOSE [3]: 162 mg/dL
LACTATE DEHYDROGENASE [3]: 412.33 u/L
LIPASE [3]: 11.33 u/L
PHOSPHORUS [3]: 13.2 mg/dL
POTASSIUM [3]: 6.69 MEQ/L
SODIUM [3]: 146.03 MEQ/L
TOTAL BILIRUBIN [3]: 0.13 mg/dL
TOTAL PROTEIN [3]: 6.2 G/DL
URIC ACID [3]: 2.33 mg/dL
